Assay results from patent publication US20090239846A1, “Novel Compounds” (Glaxo Group Limited, priority 2005, published 2009).

Columns and labels:
Recombinant human p38α = target: T1, Recombinant human p38α (Homo sapiens, UniProt Q16539); experiment: Fluorescence anisotropy kinase binding assay (standard or low volume); settings: 12 nM p38α, 5 nM fluorescent ligand
T1 construct: GST; made in house
Method in brief: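 Activated GST-tagged recombinant human p38α (pre-activated with MBP-MKK6 DD) at 12 nM final with 5 nM rhodamine green-labelled pyridinylimidazole tracer in pH 7.5 HEPES/CHAPS/DTT/MgCl2 buffer. Test compound 0.28 nM–16.6 μM or 0.02 nM–25 μM final, 3% or 1.7% DMSO; 30–60 min at room temperature. Fluorescence anisotropy read (ex 485/em 535 nm) for Ki.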

[1] = test system: influx of neutrophils to the lung in LPS-challenged rats; experiment: Rat LPS neutrophilia model; type: in vivo; settings: LPS aerosol, lavage 4 hours later, in at least one of the range of conditions tested, significance p<0.05
Method in brief: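 Rats pretreated 15 min–24 h with compound or vehicle, given intratracheally (200 ul, isoflurane anaesthesia) as suspension in various vehicles, then exposed to LPS aerosol (100 ug/ml) 15 min. BAL 4 h later; Diffquick-stained differential counts give % inhibition of neutrophils versus no-compound controls at a set concentration and pretreatment time.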

T1 sequence (Q16539 whole entry): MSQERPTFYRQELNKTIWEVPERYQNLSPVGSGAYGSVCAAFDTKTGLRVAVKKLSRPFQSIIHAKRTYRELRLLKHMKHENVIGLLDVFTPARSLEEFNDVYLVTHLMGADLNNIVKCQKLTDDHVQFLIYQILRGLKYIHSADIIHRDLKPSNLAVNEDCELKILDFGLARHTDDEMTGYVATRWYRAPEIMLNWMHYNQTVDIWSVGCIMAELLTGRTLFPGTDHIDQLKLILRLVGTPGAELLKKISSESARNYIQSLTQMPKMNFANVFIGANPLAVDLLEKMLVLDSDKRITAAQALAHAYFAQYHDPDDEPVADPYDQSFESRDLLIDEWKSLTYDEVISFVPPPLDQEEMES

SMILES | melting point | active in the assay (pIC50, p38α binding) (Recombinant human p38α) | inhibition of neutrophilia [1]
Cc1ccc(C(=O)NCc2ccccc2)cc1-c1nc(N2CCC(N)CC2)nc2c1CNC(=O)N2c1c(F)cccc1F [15(c), 3-[2-(4-Amino-1-piperidinyl)-8-(2,6-difluorophenyl)-7-oxo-5,6,7,8-tetrahydropyrimido[4,5-d]pyrimidin-4-yl]-4-methyl-N-(phenylmethyl)benzamide] | 210 to 266 °C (dec.) | active | 
Cc1ccc(C(=O)NCc2ccccc2)cc1-c1nc(NC2CCNCC2)nc2c1CNC(=O)N2c1c(F)cccc1F [21(b), 3-[8-(2,6-Difluorophenyl)-7-oxo-2-(4-piperidinylamino)-5,6,7,8-tetrahydropyrimido[4,5-d]pyrimidin-4-yl]-4-methyl-N-(phenylmethyl)benzamide] | 172 to 176 °C (dec.) | active | 
Cc1ccc(NC(=O)c2ccsc2)cc1-c1nc(N2CCC(N)CC2)nc2c1CNC(=O)N2c1c(F)cccc1F [Example 11, N-{3-[2-(4-amino-1-piperidinyl)-8-(2,6-difluorophenyl)-7-oxo-5,6,7,8-tetrahydropyrimido[4,5-d]pyrimidin-4-yl]-4-methylphenyl}-3-thiophenecarboxamide] | 250 to 261 °C (dec.) |  | statistically significant inhibition of neutrophilia
Cc1ccc(C(=O)NCc2ccccc2)cc1-c1nc(N(C)CCCN(C)C)nc2c1CNC(=O)N2c1c(F)cccc1F [Example 17, 3-{8-(2,6-Difluorophenyl)-2-[[3-(dimethylamino)propyl](methyl)amino]-7-oxo-5,6,7,8-tetrahydropyrimido[4,5-d]pyrimidin-4-yl}-4-methyl-N-(phenylmethyl)benzamide] | 124 to 127 °C |  | statistically nonsignificant inhibition of neutrophilia
Cc1ccc(C(=O)Nc2ccc(C)c(-c3nc(N4CCC(N)CC4)nc4c3CNC(=O)N4c3c(F)cccc3F)c2)cc1F [Example 24, N-{3-[2-(4-amino-1-piperidinyl)-8-(2,6-difluorophenyl)-7-oxo-5,6,7,8-tetrahydropyrimido[4,5-d]pyrimidin-4-yl]-4-methylphenyl}-3-fluoro-4-methylbenzamide] | 240 °C |  | statistically nonsignificant inhibition of neutrophilia
Cc1ccc(C(=O)Nc2ccc(C)c(-c3nc(OC(C)C)nc4c3CNC(=O)N4c3c(F)cccc3F)c2)cc1F [Example 26, N-(3-{8-(2,6-difluorophenyl)-2-[(1-methylethyl)oxy]-7-oxo-5,6,7,8-tetrahydropyrimido[4,5-d]pyrimidin-4-yl}-4-methylphenyl)-3-fluoro-4-methylbenzamide] | 253.5 to 255.4 °C |  | inactive
Cc1ccc(C(=O)NCc2ccccc2)cc1-c1nc(N2CCN(C)CC2)nc2c1CNC(=O)N2c1c(F)cccc1F [Example 148] | 164 to 168 °C |  | statistically nonsignificant inhibition of neutrophilia
Cc1ccc(C(=O)NCc2ccccc2)cc1-c1nc(NCCCN(C)C)nc2c1CNC(=O)N2c1c(F)cccc1F [Example 151] | 141 to 144 °C |  | statistically nonsignificant inhibition of neutrophilia
CNC(=O)c1ccc(C)c(-c2nc(NCCCN(C)C)nc3c2CNC(=O)N3c2c(F)cccc2F)c1 [Example 166, 3-(8-(2,6-difluorophenyl)-2-{[3-(dimethylamino)propyl]amino}-7-oxo-5,6,7,8-tetrahydropyrimido[4,5-d]pyrimidin-4-yl)-N,4-dimethylbenzamide] | 164 to 167 °C (dec.) |  | statistically nonsignificant inhibition of neutrophilia
CCN(CC)CCCNc1nc(-c2cc(C(=O)NC)ccc2C)c2c(n1)N(c1c(F)cccc1F)C(=O)NC2 [Example 172, 3-[2-{[3-(diethylamino)propyl]amino}-8-(2,6-difluorophenyl)-7-oxo-5,6,7,8-tetrahydropyrimido[4,5-d]pyrimidin-4-yl]-N,4-dimethylbenzamide] | 133 to 136 °C |  | statistically nonsignificant inhibition of neutrophilia
CNC(=O)c1ccc(C)c(-c2nc(N(C)CCCN(C)C)nc3c2CNC(=O)N3c2c(F)cccc2F)c1 [Example 174, 3-{8-(2,6-difluorophenyl)-2-[[3-(dimethylamino)propyl](methyl)amino]-7-oxo-5,6,7,8-tetrahydropyrimido[4,5-d]pyrimidin-4-yl}-dimethylbenzamide] | 163 to 165 °C |  | inactive
CNC(=O)c1ccc(C)c(-c2nc(N3CCC(N4CCCC4)CC3)nc3c2CNC(=O)N3c2c(F)cccc2F)c1 [Example 175, 3-{8-(2,6-difluorophenyl)-7-oxo-2-[4-(1-pyrrolidinyl)-1-piperidinyl]-5,6,7,8-tetrahydropyrimido[4,5-d]pyrimidin-4-yl}-N,4-dimethylbenzamide] | 189 to 194 °C (dec.) |  | inactive

Further lines, with some results ahead:

melting point | active in the assay (pIC50, p38α binding) (Recombinant human p38α) | SMILES | inhibition of neutrophilia [1]
225 to 228 °C (dec.) | active | COc1nc(-c2cc(NC(=O)c3ccsc3)ccc2C)c2c(n1)N(c1c(F)cccc1F)C(=O)NC2 [10(e), N-{3-[8-(2,6-difluorophenyl)-2-(methyloxy)-7-oxo-5,6,7,8-tetrahydropyrimido-[4,5-d]pyrimidin-4-yl]-4-methylphenyl}-3-thiophenecarboxamide] | 
157 to 161 °C | active | CNCCNc1nc(-c2cc(C(=O)NCc3ccccc3)ccc2C)c2c(n1)N(c1c(F)cccc1F)C(=O)NC2 [19(b), 3-(8-(2,6-Difluorophenyl)-2-{[2-(methylamino)ethyl]amino}-7-oxo-5,6,7,8-tetrahydropyrimido[4,5-d]pyrimidin-4-yl)-4-methyl-N-(phenylmethyl)benzamide] | 
133 to 137 °C | active | Cc1ccc(C(=O)NCc2ccccc2)cc1-c1nc(NCCNC(C)C)nc2c1CNC(=O)N2c1c(F)cccc1F [Example 20, 3-[8-(2,6-Difluorophenyl)-2-({2-[(1-methylethyl)amino]ethyl}amino)-7-oxo-5,6,7,8-tetrahydropyrimido[4,5-d]pyrimidin-4-yl]-4-methyl-N-(phenylmethyl)benzamide] | 
152 to 154 °C (dec.) | active | Cc1ccc(C(=O)NCc2ccccc2)cc1-c1nc(NC2CCN(C)CC2)nc2c1CNC(=O)N2c1c(F)cccc1F [Example 22, 3-[8-(2,6-Difluorophenyl)-2-[(1-methyl-4-piperidinyl)amino]-7-oxo-5,6,7,8-tetrahydropyrimido[4′-d]pyrimidin-4-yl]-4-methyl-N-(phenylmethyl)benzamide] | 
155 to 158 °C (dec.) | active | CNC(=O)c1ccc(C)c(-c2nc(NCCN(C)C)nc3c2CNC(=O)N3c2c(F)cccc2F)c1 [Example 163(c), 3-(8-(2,6-difluorophenyl)-2-{[2-(dimethylamino)ethyl]amino}-7-oxo-5,6,7,8-tetrahydropyrimido[4,5-d]-pyrimidin-4-yl)-N,4-dimethylbenzamide] | 
136 to 139 °C (dec.) |  | CNC(=O)c1ccc(C)c(-c2nc(NCCNC(C)C)nc3c2CNC(=O)N3c2c(F)cccc2F)c1 [Example 167, 3-[8-(2,6-difluorophenyl)-2-({2-[(1-methylethyl)amino]ethyl}amino)-7-oxo-5,6,7,8-tetrahydropyrimido[4,5-d]-pyrimidin-4-yl]-N,4-dimethylbenzamide] | 
153 to 157 °C (dec.) |  | CNC(=O)c1ccc(C)c(-c2nc(NCCCNC(C)C)nc3c2CNC(=O)N3c2c(F)cccc2F)c1 [Example 168, 3-[8-(2,6-difluorophenyl)-2-({3-[(1-methylethyl)amino]propyl}amino)-7-oxo-5,6,7,8-tetrahydropyrimido[4,5-d]pyrimidin-4-yl]-N,4-dimethylbenzamide] | 
164 to 168 °C (dec.) |  | CNC(=O)c1ccc(C)c(-c2nc(N3CCN(C)CC3)nc3c2CNC(=O)N3c2c(F)cccc2F)c1 [Example 169, 3-[8-(2,6-difluorophenyl)-2-(4-methyl-1-piperazinyl)-7-oxo-5,6,7,8-tetrahydropyrimido[4,5-d]pyrimidin-4-yl]-N,4-dimethylbenzamide] | 
166 to 170 °C (dec.) |  | CNC(=O)c1ccc(C)c(-c2nc(NCCCNC(C)(C)C)nc3c2CNC(=O)N3c2c(F)cccc2F)c1 [Example 170, 3-[8-(2,6-difluorophenyl)-2-({3-[(1,1-dimethylethyl)amino]propyl}amino)-7-oxo-5,6,7,8-tetrahydropyrimido[4,5-d]pyrimidin-4-yl]-N,4-dimethylbenzamide] | 
112 to 115 °C |  | CCCCN(CCCC)CCCNc1nc(-c2cc(C(=O)NC)ccc2C)c2c(n1)N(c1c(F)cccc1F)C(=O)NC2 [Example 171, 3-[2-{[3-(dibutylamino)propyl]amino}-8-(2,6-difluorophenyl)-7-oxo-5,6,7,8-tetrahydropyrimido[4,5-d]pyrimidin-4-yl]-N,4-dimethylbenzamide] | 
205 to 209 °C (dec.) |  | CNC(=O)c1ccc(C)c(-c2nc(NC3CCN(C)CC3)nc3c2CNC(=O)N3c2c(F)cccc2F)c1 [Example 173, 3-{8-(2,6-difluorophenyl)-2-[(1-methyl-4-piperidinyl)amino]-7-oxo-5,6,7,8-tetrahydropyrimido[4,5-d]pyrimidin-4-yl}-N,4-dimethylbenzamide] | 
